The text below walks through data of patent publication US20180037568A1, “MODULATORS OF METHYL MODIFYING ENZYMES, COMPOSITIONS AND USES THEREOF” (Constellation Pharmaceuticals, Inc., priority 2015, published 2018).

By IC50 is commonly meant the midpoint of a concentration-inhibition curve. In general, EC50 refers to the concentration giving half of the maximal effect.

Read-outs that look alike come from different tables or passages of the source.

The target of data set [1] is EZH2 (Homo sapiens, UniProt Q15910). The data set is described as follows: EZH2 nuc BSA Brij 1.5 (IC50): rPRC2, biotinylated oligonucleosome substrate, 3H SAM FlashPlate. The class given is biochemical. The following applies: read-out: EZH2 nuc BSA Brij 1.5 (IC50); 2 nM EZH2, 0.2 μM biotinylated oligonucleosomes, 0.2 μM 3H SAM, 3.6 μM H3K27me3 peptide. In a few lines: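 rPRC2 (2 nM EZH2) with 0.2 μM biotinylated oligonucleosomes, 0.2 μM 3H-SAM and 3.6 μM H3K27me3 peptide in pH 8.5 Tris with Brij-35 and BSA. Compounds, 80–0.16 μM in ten 2-fold steps, pre-incubated 20 min before a 60 min reaction. SAH/EDTA quench, streptavidin FlashPlate capture, scintillation count; IC50 from a 4-parameter fit.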

Data set [2] can be described thus: In vitro metabolism, dog liver microsomes. The class given is in vitro ADME. The following applies: 10 μM compound, 0.7 mg protein/mL, read-out: intrinsic clearance. On the procedure:
The in vitro metabolism of compound 21 was evaluated by disappearance of compound in mouse, rat, dog and human liver microsomes at 10 μM compound concentration.
Data is expressed in μL/min/mg protein.
For orientation: Liver microsomes are vesicles of endoplasmic reticulum, rich in cytochrome P450 enzymes.

Data set [3] deals with H3K27me3 mark. The data set is described as follows: H3K27me3 Alpha Hela Assay (AlphaLISA). The class given is cell-based. The following applies: Hela cells, 72 hrs; read-out: EZH2 Cell H3K27me3 Alpha HeLa (EC50 K27me3). In a few lines: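 HeLa cells at 1,000/well were treated with ten 3-fold compound doses for 72 h at 37 °C. After lysis and histone extraction, H3K27me3 was detected by AlphaLISA with anti-K27me3 acceptor beads, biotinylated anti-H3 (C-ter) antibody (3 nM final) and streptavidin donor beads (20 μg/mL final). Signals were normalized to DMSO and curve-fitted for EC50.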

Data set [4] in a line: Plasma-tissue distribution and glucuronide formation in BALB/C mice. The following applies: mouse, male BALB/C mice, oral gavage 100 mg/kg, 1 hour after dosing. The class given is in vivo. On the procedure:
1 h after dosing a group of mice (3 mice/group) via oral gavage at 100 mg/kg of compound 21, blood is collected from the submandibular or saphenous vein (˜30 μL) and tissue is collected from the biceps femoris (both sides). After tissue preparation and homogenization, plasma and tissue samples are assayed for parent drug using LC/MS/MS methodologies with internal standard. The glucuronide metabolites (parent mass +176) are also monitored via LC/MS/MS and compared to the internal standard for quantitation.

Chain of EZH2 (Q15910 whole entry): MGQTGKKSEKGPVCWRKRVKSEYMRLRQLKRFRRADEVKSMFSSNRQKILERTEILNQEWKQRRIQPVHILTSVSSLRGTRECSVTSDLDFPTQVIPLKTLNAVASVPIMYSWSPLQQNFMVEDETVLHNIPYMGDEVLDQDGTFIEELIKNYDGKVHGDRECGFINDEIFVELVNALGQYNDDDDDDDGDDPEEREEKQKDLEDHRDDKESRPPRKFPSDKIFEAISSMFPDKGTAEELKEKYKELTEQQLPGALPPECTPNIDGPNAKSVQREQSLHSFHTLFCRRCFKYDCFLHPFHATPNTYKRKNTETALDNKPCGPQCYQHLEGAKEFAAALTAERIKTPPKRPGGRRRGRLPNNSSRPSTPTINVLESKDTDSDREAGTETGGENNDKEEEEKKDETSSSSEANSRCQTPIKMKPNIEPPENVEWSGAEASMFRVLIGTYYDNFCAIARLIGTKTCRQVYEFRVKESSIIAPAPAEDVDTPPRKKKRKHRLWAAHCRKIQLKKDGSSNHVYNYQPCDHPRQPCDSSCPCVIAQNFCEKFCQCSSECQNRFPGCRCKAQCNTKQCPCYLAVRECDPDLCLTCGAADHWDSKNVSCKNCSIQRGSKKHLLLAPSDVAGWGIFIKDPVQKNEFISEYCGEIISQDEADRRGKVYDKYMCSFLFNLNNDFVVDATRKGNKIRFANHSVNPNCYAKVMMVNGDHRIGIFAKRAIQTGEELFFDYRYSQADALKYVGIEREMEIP
Chain of EZH2 (O75530 whole entry partner): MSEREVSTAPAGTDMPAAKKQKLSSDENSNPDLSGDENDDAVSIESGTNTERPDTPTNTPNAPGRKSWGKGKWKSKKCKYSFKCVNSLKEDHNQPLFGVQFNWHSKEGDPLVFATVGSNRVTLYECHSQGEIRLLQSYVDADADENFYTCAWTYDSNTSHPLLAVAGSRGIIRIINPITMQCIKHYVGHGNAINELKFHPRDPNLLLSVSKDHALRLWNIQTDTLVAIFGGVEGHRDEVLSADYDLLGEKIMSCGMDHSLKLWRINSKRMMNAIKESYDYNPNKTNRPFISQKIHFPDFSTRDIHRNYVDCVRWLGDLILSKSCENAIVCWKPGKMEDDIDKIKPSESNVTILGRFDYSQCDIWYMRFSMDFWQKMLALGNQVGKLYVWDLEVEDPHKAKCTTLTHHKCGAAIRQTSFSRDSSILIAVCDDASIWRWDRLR
Chain of EZH2 (Q15022 whole entry partner): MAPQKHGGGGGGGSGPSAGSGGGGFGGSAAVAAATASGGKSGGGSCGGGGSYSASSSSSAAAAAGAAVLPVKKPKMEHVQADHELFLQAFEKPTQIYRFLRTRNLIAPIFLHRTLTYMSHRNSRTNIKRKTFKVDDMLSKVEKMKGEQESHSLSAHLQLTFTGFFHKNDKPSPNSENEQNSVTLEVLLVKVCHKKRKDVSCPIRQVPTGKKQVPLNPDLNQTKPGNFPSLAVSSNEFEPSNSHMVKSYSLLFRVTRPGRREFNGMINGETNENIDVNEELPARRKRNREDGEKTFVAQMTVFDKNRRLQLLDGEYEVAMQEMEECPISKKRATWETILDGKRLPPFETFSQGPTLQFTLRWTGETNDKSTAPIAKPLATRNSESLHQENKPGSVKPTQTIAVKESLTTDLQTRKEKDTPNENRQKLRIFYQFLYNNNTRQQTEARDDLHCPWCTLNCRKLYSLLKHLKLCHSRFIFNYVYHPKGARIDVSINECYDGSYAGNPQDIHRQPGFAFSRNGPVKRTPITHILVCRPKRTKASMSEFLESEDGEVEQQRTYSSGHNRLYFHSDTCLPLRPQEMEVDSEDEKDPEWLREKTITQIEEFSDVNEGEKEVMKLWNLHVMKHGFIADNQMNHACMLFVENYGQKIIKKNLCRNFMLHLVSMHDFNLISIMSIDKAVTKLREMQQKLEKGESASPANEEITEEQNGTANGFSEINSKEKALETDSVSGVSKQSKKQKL

As for `COc1cc(C)[nH]c(=O)c1CNC(=O)c1c(C)n(C(C)C2CCN(C)C(C(F)(F)F)C2)c2ccccc12` (single isomer, unassigned) [Compound 21, N-((4-methoxy-6-methyl-2-oxo-1,2-dihydropyridin-3-yl)methyl)-2-methyl-1-(1-(1-methyl-2-(trifluoromethyl)piperidin-4-yl)ethyl)-1H-indole-3-carboxamide], the IC50 in data set [1] is less than 100 nM. Besides, the microsomal CLint at 10 μM in data set [2] is 35 µL/min/mg. Moreover, in data set [3], the EC50 is less than 400 nM. Besides, the concentration at 1 h in data set [4] (muscle (biceps femoris), biceps femoris, read-out: Conc. in Muscle) stood at 7240 ng/g; in data set [4] (plasma, read-out: Conc. in Plasma), 8370 ng/mL. Moreover, the Kp at 1 h in data set [4] (muscle/plasma, read-out: Ratio Muscle/Plasma) is 0.86.
